Test results as given in patent US20230411006A1, “METHOD FOR ASSESSING THE AREA UNDER THE CURVE OF AN IMMUNOSUPRESSANT AND ASSOCIATED METHOD AND SYSTEMS” (INSTITUT NATIONAL DE LA SANTE ET DE LA RECHERCHE MEDICALE, priority 2020, published 2023).
Where two headings read alike, the source gives them in different places. One block for each molecule: values may come before it.

Key:
[1] = Mycophenolic acid interdose AUC0-12 h in ISBA requests (MPA plasma levels after MMF dose); type: in vivo, human; settings: for AUC: human, plasma, oral, Median, read-out: Interdose AUC0_12 h
Method: For patients and data, the dataset was sequentially refined by selecting the requests where MPA plasma levels were measured using HPLC, including at least 3 times of sampling approximately 20 min (10 to 30 min, C20), 60 min (30 to 100 min, C1) and 180 min (140 to 220 min, C3) after dose intake. Actually, the 20, 60, 180 min is the optimal sampling schedule for MMF. A filter was applied to select the requests with an interdose of 12 h. The other predictors available were the morning dose of MMF, the time elapsed between transplantation and MPA plasma sampling, the type of transplant, the associated immunosuppressant and patient age.

[2] = Tacrolimus concentrations and interdose AUC in ISBA requests of renal transplant patients; settings: human, in vivo, oral; for concentration at 3 h: read-out: Concentration C3 at 3 h; for concentration at 1 h: read-out: Concentration C1 at 1 h; for C0: read-out: Through level C0
Method: Tacrolimus requests from ISBA website were extracted and cleaned using the tidyverse framework. Patient with a renal transplantation and tacrolimus concentrations measured using HPLC methods were selected. The requests including at least 3 sample times at 0 minutes (min), 60 min and 180 min after dose intake were selected with a range of selection of 30 min to 100 min for the 60 min and 140 min to 220 min for the 180 min (the 0, 60, 180 min is the optimal sampling schedule for Prograf® and Advagraf® while the optimal sampling times requested for Envarsus® is 0, 8 and 12 h after dose intake and this later formulation was not included in the analysis).
The dataset was split into two datasets according to the tacrolimus interdose and two independent prediction functions were developed, one for twice a day formulations (TAD; Prograf®) and one for once a day formulations (OAD; Advagraf®).
The present study used supervised learning to predict the inter-dose AUC for which the reference value have been obtained by MAP-BE in the ISBA website based on 3 concentrations.
The tacrolimus concentrations were binned into 3 theoretical time classes (concentrations at trough (C0 sampled at t=0 min), at 1 h (C1 sampled between 30 and 100 min) and at 3 h (C3 sampled between 140 and 220 min), leading to 3 columns per patient.

Interdose AUC0_12 h ([1]; Maximum, TEST (N = 3219)): 163.62 mg·h/L
Interdose AUC0_12 h ([1]; Maximum, TRAIN (N = 9658)): 181.39 mg·h/L
Interdose AUC0_12 h ([1]; Minimum, TEST (N = 3219)): 3.19 mg·h/L
Interdose AUC0_12 h ([1]; Minimum, TRAIN (N = 9658)): 1.12 mg·h/L
AUC ([1]; TEST (N = 3219)): 39200 ng·h/mL
AUC ([1]; TRAIN (N = 9658)): 39300 ng·h/mL
Structure (SMILES): COc1c(C)c2c(c(O)c1C/C=C(\C)CCC(=O)O)C(=O)OC2 [mycophenolic acid]

concentration at 3 h ([2]; Maximum, OAD, Test (n = 394)): 17.9 ng/mL
concentration at 3 h ([2]; Maximum, OAD, Train (n = 1184)): 18.4 ng/mL
concentration at 3 h ([2]; Maximum, TAD, Test (n = 1236)): 16.9 ng/mL
concentration at 3 h ([2]; Maximum, TAD, Train (n = 3708)): 16.6 ng/mL
concentration at 1 h ([2]; Maxmum, OAD, Test (n = 394)): 17.1 ng/mL
concentration at 1 h ([2]; Maxmum, OAD, Train (n = 1184)): 18.4 ng/mL
concentration at 1 h ([2]; Maxmum, TAD, Test (n = 1236)): 21.7 ng/mL
concentration at 1 h ([2]; Maxmum, TAD, Train (n = 3708)): 21.4 ng/mL
concentration at 1 h ([2]; Median, OAD, Test (n = 394)): 12.3 ng/mL
concentration at 3 h ([2]; Median, OAD, Test (n = 394)): 13 ng/mL
AUC ([2]; Median, OAD, Test (n = 394), read-out: Interdose AuC): 222 ng·h/mL
C0 ([2]; Median, OAD, Test (n = 394)): 12.3 ng/mL
concentration at 1 h ([2]; Median, OAD, Train (n = 1184)): 12.6 ng/mL
concentration at 3 h ([2]; Median, OAD, Train (n = 1184)): 13.9 ng/mL
AUC ([2]; Median, OAD, Train (n = 1184), read-out: Interdose AuC): 236 ng·h/mL
C0 ([2]; Median, OAD, Train (n = 1184)): 12.6 ng/mL
concentration at 1 h ([2]; Median, TAD, Test (n = 1236)): 15.4 ng/mL
concentration at 3 h ([2]; Median, TAD, Test (n = 1236)): 12.8 ng/mL
AUC ([2]; Median, TAD, Test (n = 1236), read-out: Interdose AuC): 130 ng·h/mL
C0 ([2]; Median, TAD, Test (n = 1236)): 15.4 ng/mL
concentration at 1 h ([2]; Median, TAD, Train (n = 3708)): 14.7 ng/mL
concentration at 3 h ([2]; Median, TAD, Train (n = 3708)): 12.4 ng/mL
AUC ([2]; Median, TAD, Train (n = 3708), read-out: Interdose AuC): 128 ng·h/mL
C0 ([2]; Median, TAD, Train (n = 3708)): 14.7 ng/mL
concentration at 1 h ([2]; Minimum, OAD, Test (n = 394)): 8.6 ng/mL
concentration at 3 h ([2]; Minimum, OAD, Test (n = 394)): 9.51 ng/mL
concentration at 1 h ([2]; Minimum, OAD, Train (n = 1184)): 9 ng/mL
concentration at 3 h ([2]; Minimum, OAD, Train (n = 1184)): 9.8 ng/mL
concentration at 1 h ([2]; Minimum, TAD, Test (n = 1236)): 10.5 ng/mL
concentration at 3 h ([2]; Minimum, TAD, Test (n = 1236)): 9.6 ng/mL
concentration at 1 h ([2]; Minimum, TAD, Train (n = 3708)): 10.2 ng/mL
concentration at 3 h ([2]; Minimum, TAD, Train (n = 3708)): 9.3 ng/mL
AUC ([2]; OAD, cleaned ISBA datasets, read-out: interdose AUCs range): 44 to 698 ng·h/mL
AUC ([2]; TAD, cleaned ISBA datasets, read-out: interdose AUCs range): 22 to 380 ng·h/mL
Structure (SMILES): C=CC[C@@H]1/C=C(\C)C[C@H](C)C[C@H](OC)[C@H]2O[C@@](O)(C(=O)C(=O)N3CCCC[C@H]3C(=O)O[C@H](/C(C)=C/[C@@H]3CC[C@@H](O)[C@H](OC)C3)[C@H](C)[C@@H](O)CC1=O)[C@H](C)C[C@@H]2OC [tacrolimus]
